Values after ≈ are worked out from the molar mass of the structure shown. Read-outs that look alike come from different tables or passages of the source.
How the values were obtained:
[1] = Stability study (appearance, HPLC, IR) in stability chambers; assay type: physicochemical; conditions: for % compd 1 / % compd 2: HPLC
Method: 100 mg±2% of compound 1 was weighed into each 20 mL scintillation vial. The vials were capped with appropriate caps and sealed with Parafilm to prevent moisture entrapment. Stability for the test compounds synthesized from different log was tested. Twelve vials for each lot were prepared and distributed into respective stability chambers to initiate their stability study according to the following protocol.
Stability of the test compound was determined by its appearance and by analytical methods such as HPLC and IR. The IR test was performed for all time points under the two conditions listed above using material in one vial.
Compound 1 contains trace amount of compound 2 shown below. The amounts of compound 1 and 2 present at each time point were analyzed by HPLC.

[2] = Reconstitution test in 50:50 Cremophor EL/Ethanol; assay type: physicochemical; conditions: 266 mg in 16.7 ml 50:50 Cremophor EL/Ethanol
Method: As used herein, the reconstitution time is measured in 50:50 Cremophor EL/ethanol solution at ambient temperature (e.g., 18-25° C.) The reconstitution time can be measure according to the procedure described in Example 7. For example, the reconstitution time is measured by dissolving 266 mg of compound 1 in 16.7 mL of 50:50 Cremophor EL/ethanol solution with manual shaking or mechanical shaking at a speed of 232-236 rpm.
50:50 Cremophor EL/Ethanol was prepared and filtered through a 0.45 μm filter and used for testing. 266 mg of compound 1 was weighed into a 50 mL glass vial with a rubber stopper. 16.7 ml of filtered 50:50 Cremophor EL/Ethanol solution was taken by a syringe and needle and added into the vial. The vial was shaken either manually, or on a mechanical shaker at a speed of 232-236 rpm. The reconstitution time was determined with three vials. At different time points, vials were subject to visual observation.

Sieve-cut test = assay type: physicochemical; conditions: 300 micron screen
Method: […] 5 g to 20 g samples were used, depending on the batch size. The mass and percentage of material collected in the receiver were measured.

[3] = Solubility of Form A and Form D; assay type: physicochemical; conditions: shake time 24 hour; for solubility at 24 h: organic solvent or mixture, thermodynamic from solid
[4] = test system: stage IV metastatic melanoma; conditions: in combination with taxol, relative to patients treated with paclitaxel alone; cited from earlier work

Structure (SMILES): CN(NC(=O)CC(=O)NN(C)C(=S)c1ccccc1)C(=S)c1ccccc1 [Lot #1, N-malonyl-bis(N′-methyl-N′-thiobenzoylhydrazide)]
- Appearance ([1]; 25° C./60% RH, 0 months): Pale-yellow
- FT-IR ([1]; 25° C./60% RH, 0 months): Form D
- Appearance ([1]; 25° C./60% RH, 1 month): Pale-yellow
- FT-IR ([1]; 25° C./60% RH, 1 month): Form D
- Appearance ([1]; 25° C./60% RH, 3 months): Pale-yellow
- FT-IR ([1]; 25° C./60% RH, 3 months): Form D
- Appearance ([1]; 25° C./60% RH, 6 months): Pale yellow
- FT-IR ([1]; 25° C./60% RH, 6 months): Form D
- Appearance ([1]; 25° C./60% RH, 9 months): Pale yellow
- FT-IR ([1]; 25° C./60% RH, 9 months): Form D
- Appearance ([1]; 25° C./60% RH, 12 months): Pale yellow
- FT-IR ([1]; 25° C./60% RH, 12 months): Form D
- Appearance ([1]; 40° C./75% RH, 0 months): Pale-
- FT-IR ([1]; 40° C./75% RH, 0 months): Form D
- Appearance ([1]; 40° C./75% RH, 0.5 months): Pale-yellow
- FT-IR ([1]; 40° C./75% RH, 0.5 months): Form D
- Appearance ([1]; 40° C./75% RH, 1 month): Pale-
- FT-IR ([1]; 40° C./75% RH, 1 month): Form D
- Appearance ([1]; 40° C./75% RH, 3 months): Pale-yellow
- FT-IR ([1]; 40° C./75% RH, 3 months): Form D
- Appearance ([1]; 40° C./75% RH, 6 months): Pale-
- FT-IR ([1]; 40° C./75% RH, 6 months): Form D
- % compd 1 ([1]; 25° C./60% RH, 0 months): 99.0%
- % compd 2 ([1]; 25° C./60% RH, 0 months): 1.30%
- % compd 1 ([1]; 25° C./60% RH, 1 month): 98.8%
- % compd 2 ([1]; 25° C./60% RH, 1 month): 1.28%
- % compd 1 ([1]; 25° C./60% RH, 3 months): 99.0%
- % compd 2 ([1]; 25° C./60% RH, 3 months): 1.31%
- % compd 1 ([1]; 25° C./60% RH, 6 months): 99.0%
- % compd 2 ([1]; 25° C./60% RH, 6 months): 1.28%
- % compd 1 ([1]; 25° C./60% RH, 9 months): 97.5%
- % compd 2 ([1]; 25° C./60% RH, 9 months): 1.38%
- % compd 1 ([1]; 25° C./60% RH, 12 months): 98.0%
- % compd 2 ([1]; 25° C./60% RH, 12 months): 1.33%
- % compd 1 ([1]; 40° C./75% RH, 0 months): 99.0%
- % compd 2 ([1]; 40° C./75% RH, 0 months): 1.30%
- % compd 1 ([1]; 40° C./75% RH, 0.5 months): 99.7%
- % compd 2 ([1]; 40° C./75% RH, 0.5 months): 1.28%
- % compd 1 ([1]; 40° C./75% RH, 1 month): 95.8%
- % compd 2 ([1]; 40° C./75% RH, 1 month): 1.28%
- % compd 1 ([1]; 40° C./75% RH, 3 months): 98.9%
- % compd 2 ([1]; 40° C./75% RH, 3 months): 1.33%
- % compd 1 ([1]; 40° C./75% RH, 6 months): 98.4%
- % compd 2 ([1]; 40° C./75% RH, 6 months): 1.31%

Structure (SMILES): CN(NC(=O)CC(=O)NN(C)C(=S)c1ccccc1)C(=S)c1ccccc1 [Crystal Habit 2, N-malonyl-bis(N′-methyl-N′-thiobenzoylhydrazide)]
- Re-constitution time (min) for specific sieve-cut ([2]; 150 micron sieve-cut): less than or equal to 15 min

Structure (SMILES): CN(NC(=O)CC(=O)NN(C)C(=S)c1ccccc1)C(=S)c1ccccc1 [compound 2]
- Re-constitution time (min) for specific sieve-cut ([2]; 500 micron sieve-cut): >>25, 500 micron min
- % by weight that passed through a specific size screen, % (Sieve-cut test): Does not pass

Structure (SMILES): CN(NC(=O)CC(=O)NN(C)C(=S)c1ccccc1)C(=S)c1ccccc1 [Form D, N-malonyl-bis(N′-methyl-N′-thiobenzoylhydrazide)]
- Solubility in 50:50 Cre/EtOH, Vial1 ([3]; 50:50 Cremophor/EtOH, Vial1): 42690 µg/mL (≈ 107 mM)
- Solubility in 50:50 Cre/EtOH, Vial2 ([3]; 50:50 Cremophor/EtOH, Vial2): 42740 µg/mL (≈ 107 mM)
- Solubility in 50:50 Cre/EtOH, Average ([3]; 50:50 Cremophor/EtOH, average of two vials): 42700 µg/mL (≈ 107 mM)
- Solubility in EtOAc, Vial1 ([3]; EtOAc, Vial1): 7410 µg/mL (≈ 18.5 mM)
- Solubility in EtOAc, Vial2 ([3]; EtOAc, Vial2): 7500 µg/mL (≈ 18.7 mM)
- Solubility in EtOAc, Average ([3]; EtOAc, average of two vials): 7500 µg/mL (≈ 18.7 mM)
- Solubility in EtOH, Vial1 ([3]; EtOH, Vial1): 9760 µg/mL (≈ 24.4 mM)
- Solubility in EtOH, Vial2 ([3]; EtOH, Vial2): 9750 µg/mL (≈ 24.3 mM)
- Solubility in EtOH, Average ([3]; EtOH, average of two vials): 9800 µg/mL (≈ 24.5 mM)

Structure (SMILES): CN(NC(=O)CC(=O)NN(C)C(=S)c1ccccc1)C(=S)c1ccccc1 [Crystal Habit 1, N-malonyl-bis(N′-methyl-N′-thiobenzoylhydrazide)]
- Re-constitution time (min) for specific sieve-cut ([2]; 500 micron sieve-cut): greater than 25 min

Structure (SMILES): CN(NC(=O)CC(=O)NN(C)C(=S)c1ccccc1)C(=S)c1ccccc1 [Form A, N-malonyl-bis(N′-methyl-N′-thiobenzoylhydrazide)]
- solubility at 24 h ([3]; 50:50 Cremophor/ethanol, 50:50 Cremophor/EtOH, Vial1, read-out: Solubility in 50:50 Cre/EtOH, Vial1): 24400 µg/mL (≈ 60.8 mM)
- solubility at 24 h ([3]; 50:50 Cremophor/ethanol, 50:50 Cremophor/EtOH, Vial2, read-out: Solubility in 50:50 Cre/EtOH, Vial2): 24300 µg/mL (≈ 60.6 mM)
- solubility at 24 h ([3]; 50:50 Cremophor/ethanol, 50:50 Cremophor/EtOH, average of two vials, read-out: Solubility in 50:50 Cre/EtOH, Average): 24300 µg/mL (≈ 60.7 mM)
- solubility at 24 h ([3]; ethanol, EtOH, Vial1, read-out: Solubility in EtOH, Vial1): 6280 µg/mL (≈ 15.7 mM)
- solubility at 24 h ([3]; ethanol, EtOH, Vial2, read-out: Solubility in EtOH, Vial2): 6450 µg/mL (≈ 16.1 mM)
- solubility at 24 h ([3]; ethanol, EtOH, average of two vials, read-out: Solubility in EtOH, Average): 6400 µg/mL (≈ 16 mM)
- solubility at 24 h ([3]; ethyl acetate, EtOAc, Vial1, read-out: Solubility in EtOAc, Vial1): 4690 µg/mL (≈ 11.7 mM)
- solubility at 24 h ([3]; ethyl acetate, EtOAc, Vial2, read-out: Solubility in EtOAc, Vial2): 4690 µg/mL (≈ 11.7 mM)
- solubility at 24 h ([3]; ethyl acetate, EtOAc, average of two vials, read-out: Solubility in EtOAc, Average): 4700 µg/mL (≈ 11.7 mM)

Structure (SMILES): CN(NC(=O)CC(=O)NN(C)C(=S)c1ccccc1)C(=S)c1ccccc1 [compound 1, N-malonyl-bis(N′-methyl-N′-thiobenzoylhydrazide)]
- Re-constitution time (min) for specific sieve-cut ([2]; 500 micron sieve-cut): >>25, 500 micron min
- time to progression [4]: increase the time to progression
- % by weight that passed through a specific size screen, % (Sieve-cut test): Does not pass

Structure (SMILES): CN(NC(=O)CC(=O)NN(C)C(=S)c1ccccc1)C(=S)c1ccccc1 [Lot #2, N-malonyl-bis(N′-methyl-N′-thiobenzoylhydrazide)]
- Appearance ([1]; 25° C./60% RH, 0 months): Pale-yellow
- FT-IR ([1]; 25° C./60% RH, 0 months): Form D
- Appearance ([1]; 25° C./60% RH, 1 month): Pale-yellow
- FT-IR ([1]; 25° C./60% RH, 1 month): Form D
- Appearance ([1]; 25° C./60% RH, 3 months): Pale-yellow
- FT-IR ([1]; 25° C./60% RH, 3 months): Form D
- Appearance ([1]; 25° C./60% RH, 6 months): Pale-yellow
- FT-IR ([1]; 25° C./60% RH, 6 months): Form D
- Appearance ([1]; 25° C./60% RH, 9 months): Pale-yellow
- FT-IR ([1]; 25° C./60% RH, 9 months): Form D
- Appearance ([1]; 25° C./60% RH, 12 months): Pale-yellow
- FT-IR ([1]; 25° C./60% RH, 12 months): Form D
- Appearance ([1]; 40° C./75% RH, 0 months): Pale-
- FT-IR ([1]; 40° C./75% RH, 0 months): Form D
- Appearance ([1]; 40° C./75% RH, 0.5 months): Pale-yellow
- FT-IR ([1]; 40° C./75% RH, 0.5 months): Form D
- Appearance ([1]; 40° C./75% RH, 1 month): Pale-
- FT-IR ([1]; 40° C./75% RH, 1 month): Form D
- Appearance ([1]; 40° C./75% RH, 3 months): Pale-yellow
- FT-IR ([1]; 40° C./75% RH, 3 months): Form D
- Appearance ([1]; 40° C./75% RH, 6 months): Pale-
- FT-IR ([1]; 40° C./75% RH, 6 months): Form D
- % compd 1 ([1]; 25° C./60% RH, 0 months): 99.7%
- % compd 2 ([1]; 25° C./60% RH, 0 months): 0.15%
- % compd 1 ([1]; 25° C./60% RH, 1 month): 98.6%
- % compd 2 ([1]; 25° C./60% RH, 1 month): 0.14%
- % compd 1 ([1]; 25° C./60% RH, 3 months): 100.2%
- % compd 2 ([1]; 25° C./60% RH, 3 months): 0.15%
- % compd 1 ([1]; 25° C./60% RH, 6 months): 99.6%
- % compd 2 ([1]; 25° C./60% RH, 6 months): 0.13%
- % compd 1 ([1]; 25° C./60% RH, 9 months): 98.9%
- % compd 2 ([1]; 25° C./60% RH, 9 months): 0.13%
- % compd 1 ([1]; 25° C./60% RH, 12 months): 99.7%
- % compd 2 ([1]; 25° C./60% RH, 12 months): 0.13%
- % compd 1 ([1]; 40° C./75% RH, 0 months): 99.7%
- % compd 2 ([1]; 40° C./75% RH, 0 months): 0.15%
- % compd 1 ([1]; 40° C./75% RH, 0.5 months): 99.6%
- % compd 2 ([1]; 40° C./75% RH, 0.5 months): 0.14%
- % compd 1 ([1]; 40° C./75% RH, 1 month): 100.3%
- % compd 2 ([1]; 40° C./75% RH, 1 month): 0.16%
- % compd 1 ([1]; 40° C./75% RH, 3 months): 100.2%
- % compd 2 ([1]; 40° C./75% RH, 3 months): 0.19%
- % compd 1 ([1]; 40° C./75% RH, 6 months): 101.7%
- % compd 2 ([1]; 40° C./75% RH, 6 months): 0.18%
